# Marks after values point to notes of the source that are not given here.
# How the values were obtained:
# clinical = type: in vivo, human
# Text: This method was then verified prospectively in three additional patients (see Example IV).
# However, the CL was lower in females compared to males.
# in vivo = details: mouse
# [1] = system: human prostate PC3 xenograft tumors; assay: Antitumor activity in subcutaneous human prostate PC3 xenograft (tumor size over time); type: in vivo, immunodeficient mice
# Experimental: The dose of paclitaxel was 15 mg/kg and was given twice weekly for three weeks. […] Example 1 further expounds on FIG. 1.
# The relevant tumor model used was human prostate PC3 xenograft implanted subcutaneously in immunodeficient mice. […] The dose of paclitaxel was 15 mg/kg and was given twice weekly for three weeks.
# [2] = system: human prostate PC3 xenograft tumors; assay: Non-apoptotic and apoptotic cell counts in histologic sections of residual PC3 tumors; type: in vivo, immunodeficient mice; details: mean ± SD
# Experimental: Because a post-treatment residual tumor consisted of apoptotic and non-apoptotic cells, the effects of different treatments on the fractions of non-apoptotic (and therefore not committed to death) and apoptotic (dead or committed) cells were evaluated. Briefly, residual tumors were removed from animals after termination of treatment, and histologic tumor sections were prepared. Tumor sections were examined microscopically under 400× magnification. For each tumor, at least 4 sections were evaluated. Apoptotic cells were identified by their characteristic morphologies, i.e., presence of apoptotic bodies, condensed nuclei and fragmented nuclei.
# [3] = Literature, cited from earlier work
# cell cycle = details: constant concentrations of above 50 μM maintained for at least one or two days; cited from earlier work
# [4] = system: acidic and basic fibroblast growth factors (aFGF and bFGF); details: tumor cells, aFGF and bFGF induced resistance; cited from earlier work
# [5] = Phase I trial, toxicity of low dose suramin with paclitaxel and carboplatin; type: in vivo, human
# Text: Fifteen patients, with metastases to pleura, pericardium, adrenals, lymph nodes, liver, bone, and/or brain, were enrolled in the phase I trial. This group includes 4 stage IIIb and 11 stage IV patients. […] All patients were evaluable for pharmacokinetics and toxicity. […] Accordingly, it was not necessary to administer replacement steroid therapy to patients who received low dose suramin. This is contrary to the case where replacement steroid therapy was routinely given to patients who received high dose suramin (Dorr and Von Hoff).
# [6] = Population-based pharmacokinetic (PBPK) analysis of low dose suramin, NONMEM
# Text: The first step is to define the appropriate error model for the pharmacokinetic parameters of interest. […] Only the covariates whose elimination results in significant deterioration in model performance are included in the final model (referred to as Population Model).
# The PBPK for a one-compartment model depicting plasma concentrations as a function of clearance (CL) and volume of distribution (V) is as follows: • where Cij is the predicted plasma concentration at a particular time time i for a patient j.
# Error functions were used to describe the random deviations between model-predicted and observed data for individual pharmacokinetic parameters. Because the objective was to identify the dose, which can be calculated based on CL and V, the analysis focused on these two parameters. […] CLj=CL^typ*(1+ηCL) Eq. 2 Vj=V^typ*(1+ηV) Eq. 3 where ηCL and ηV are random values normally distributed around a mean of zero with a variance of ω^2.
# Multiple plasma concentration-time data points were used in PBPK analysis. These time points were 18, 24, 48 and 72 hours after the first treatment, 72 hours and immediately prior to next treatment, and 48 and 72 hours after second and subsequent treatments. The relationship between observed plasma concentrations and PBPK-predicted values (residual variability) is depicted by Equation 4. Yij=Cij*(1+ε1ij) Eq. 4 where Yij and Cij are the observed and predicted concentrations of the j^th individual at the i^th sampling time. ε1ij is the residual errors with a mean of zero and a variance of σ^2. The above equations used an error function in the form of (1+error), which represents the proportional error model where the coefficient of variation is constant and independent of the size of the fixed effect parameter. […] Model Building: Identification of Significant Covariates
# The contribution of ten covariates to the inter-individual variability in CL and V was studied. These covariates were age, gender, weight, ideal body weight, height, body surface area (BSA), creatinine concentration, creatinine clearance (CrCL), and serum albumin concentration. Linear regression analysis was used to examine the relationships between covariates and pharmacokinetic parameters in individual patients.
# To determine whether a covariate should be incorporated into the model, the log likelihood ratio test was used and the chi-square χ^2 values were calculated by taking the difference in the objective function values of the models, obtained with or without adding the candidate covariate.
# CL^typ=(θ1*BSA+θ2*CrCL+θ3)*(1−θ4) Eq. 7 V^typ=θ5*BSA^2+θ6 Eq. 8 […]
# To obtain estimates for k^typ, the k values for individual patients were calculated by substituting their corresponding BSA values into Equations 13 and 14.
# [7] = Prospective verification of the PBPK-based dosing method, plasma concentrations; type: in vivo, human; details: for concentration at 48 h: human, plasma, intravenous
# Experimental: Three additional non-small cell lung cancer patients were treated using the dose calculated by the PBPK-based method.
# [8] = paclitaxel alone 15 mg/kg twice weekly for three weeks
# [9] = high dose suramin >2,000 mg per m^2
# [10] = Population Model, first 12 patients
# [11] = Patient 1, cycle 1, BSA 1.45, dose 263 mg
# [12] = Patient 1, cycles 3 to 6, dose 151-156 mg
# [13] = Patient 2, cycle 1, BSA 1.67, dose 210 mg
# [14] = Patient 2, cycles 2 to 6, dose 227-257 mg
# [15] = Patient 3, cycle 1, BSA 1.83, dose 230 mg
# [16] = high dose suramin regimen 200 mg/kg then 5 x 130 mg/kg over three weeks, combination: plus paclitaxel 15 mg/kg
# [17] = low dose suramin regimen 10 mg/kg twice weekly for three weeks, combination: plus paclitaxel 15 mg/kg
structure (smiles),measurement,setting,value
"CC(=O)O[C@H]1C(=O)[C@@]2(C)[C@H]([C@H](OC(=O)c3ccccc3)[C@]3(O)C[C@H](OC(=O)[C@H](O)[C@@H](NC(=O)c4ccccc4)c4ccccc4)C(C)=C1C3(C)C)[C@]1(OC(C)=O)CO[C@@H]1C[C@@H]2O [Paclitaxel, paclitaxel]",areas-under-plasma concentration-time curves attained in the first 48 hours after drug administration,"clinical; human, in vivo",> 92%
same,concentration at 5 min,in vivo,~7000 ng/mL
same,concentration at 5 h,in vivo,200 ng/mL
same,concentration at 6 h,in vivo,< 100 ng/mL
same,antitumor effect (tumor growth),"[1]; paclitaxel alone 15 mg/kg twice weekly for three weeks, p<0.05 vs control",suppressed tumor growth
same,Number of apoptotic cells in a 400x field,[2]; [8],30 ± 17
same,Number of non-apoptotic cells in a 400x field,[2]; [8],14 ± 10
Cc1ccc(C(=O)Nc2ccc(S(=O)(=O)O)c3cc(S(=O)(=O)O)cc(S(=O)(=O)O)c23)cc1NC(=O)c1cccc(NC(=O)Nc2cccc(C(=O)Nc3cc(C(=O)Nc4ccc(S(=O)(=O)O)c5cc(S(=O)(=O)O)cc(S(=O)(=O)O)c45)ccc3C)c2)c1 [suramin],Alpha half-life,[3]; [9],5.5 ± 1.7 h
same,Beta half-life,[3]; [9],98.4 ± 52.8 h
same,Gamma half-life,[3]; [9],1870 ± 1100 h
same,Total body clearance,[3]; [9],0.01 ± 0.004 l/hr/m^2
same,Cumulative AUC,"[3]; high dose suramin, total dose >2,000 mg per m^2 per 3-week interval, calculated as 200 μg/ml x 3 weeks from the reference",101* mg-hr/ml
same,effect on cell cycle,cell cycle,induce cell cycle arrest
same,concentrations of suramin that overcome FGF-mediated resistance to chemotherapy,[4],less than 50 μM
same,dose-limiting toxicity,"[5]; low dose suramin with paclitaxel 200 mg/m^2 and carboplatin AUC 6 every three weeks, fifteen patients",No dose-limiting toxicity
same,adrenal insufficiency,[5]; patients receiving the low dose suramin treatment,no adrenal insufficiency
same,half-life,"clinical; both sexes, human, in vivo, Alpha half-life",4.4 h
same,half-life,"clinical; both sexes, human, in vivo, Beta half-life",264 h
same,maximum inter-individual variability of clearance (CL),"clinical; both, human, in vivo",182%
same,inter-individual variability of clearance (CL),"clinical; female, human, in vivo",2%
same,half-life,"clinical; female, human, in vivo, Alpha half-life",4.6 ± 2 h
same,half-life,"clinical; female, human, in vivo, Beta half-life",336 h
same,area under the terminal phase as share of the total area-under-curve,"clinical; human, in vivo",~90%
same,concentration at 48 h,"clinical; human, in vivo",> 10 µM
same,maximum inter-subject variability in the steady state volume of distribution (Vss),"clinical; human, in vivo",153%
same,inter-individual variability of clearance (CL),"clinical; male, human, in vivo",13%
same,half-life,"clinical; male, human, in vivo, Alpha half-life",4.3 ± 0.6 h
same,half-life,"clinical; male, human, in vivo, Beta half-life",240 h
same,"k^typ (elimination rate constant), Estimate",[6]; Female,0.0022 h⁻¹
same,"k^typ (elimination rate constant), Estimate",[6]; Male,0.0026 h⁻¹
same,"θ1 (effect of BSA on CL^typ), Estimate",[6]; [10],26.2 mL/h * m^2
same,"θ5 (effect of BSA^2 on V^typ), Estimate",[6]; [10],5.13 L/m^4
same,antitumor effect (tumor growth),"[1]; high dose suramin regimen: loading dose 200 mg/kg, then 5 doses of 130 mg/kg over three weeks, combination: plus paclitaxel 15 mg/kg twice weekly for three weeks",slower tumor growth
same,"tumor size, % of the initial tumor size","[1]; low dose suramin regimen: 10 mg/kg twice weekly for three weeks, combination: plus paclitaxel 15 mg/kg twice weekly for three weeks",about 800%
same,"Concentration, Post-paclitaxel",[7]; [11],33.95 µM
same,"Concentration, Pre-dose",[7]; [11],0.00 µM
same,"Concentration, Post-paclitaxel",[7]; [12],21.5 to 26.3 µM
same,"Concentration, Pre-dose",[7]; [12],1.87 to 3.19 µM
same,"Concentration, Post-paclitaxel",[7]; [13],40.39 µM
same,"Concentration, Pre-dose",[7]; [13],0.00 µM
same,"Concentration, Post-paclitaxel",[7]; [14],26.7 to 28.5 µM
same,"Concentration, Pre-dose",[7]; [14],2.65 to 3.81 µM
same,"Concentration, Post-paclitaxel",[7]; [15],36.02 µM
same,"Concentration, Pre-dose",[7]; [15],0.00 µM
same,maximum concentrations after administration of paclitaxel,"[7]; all 13 treatments in three patients, PBPK-calculated dose, two-thirds / one-third split",below 50 μM
same,concentration at 48 h,"[7]; Patient 1, cycle 1, BSA 1.45, dose 263 mg, read-out: Concentration, 48 hours",13.9 µM
same,concentration at 48 h,"[7]; Patient 1, cycles 3 to 6, dose 151-156 mg, read-out: Concentration, 48 hours",10.2 to 11.5 µM
same,concentration at 48 h,"[7]; Patient 2, cycle 1, BSA 1.67, dose 210 mg, read-out: Concentration, 48 hours",15.5 µM
same,concentration at 48 h,"[7]; Patient 2, cycles 2 to 6, dose 227-257 mg, read-out: Concentration, 48 hours",12.9 to 15.6 µM
same,concentration at 48 h,"[7]; Patient 3, cycle 1, BSA 1.83, dose 230 mg, read-out: Concentration, 48 hours",19.4 µM
same,concentration at 48 h,"[7]; all 13 treatments in three patients, PBPK-calculated dose, two-thirds / one-third split, read-out: 48-hour plasma concentrations",> 10 µM
same,Number of apoptotic cells in a 400x field,[2]; [16],22 ± 9
same,Number of non-apoptotic cells in a 400x field,[2]; [16],19 ± 9
same,Number of apoptotic cells in a 400x field,[2]; [17],21 ± 16
same,Number of non-apoptotic cells in a 400x field,[2]; [17],62 ± 44
N.N.O=C([O-])C1(C(=O)[O-])CCC1.[Pt+2] [carboplatin],areas-under-plasma concentration-time curves attained in the first 48 hours after drug administration,clinical; first six patients,> 99%
